Measured values from the supplement of paper PMC6045584.
± gives the standard deviation of the averaged measurements.

Columns and labels:
[1] = compound: CC(=O)NCC(=O)N1[C@@H]2CC[C@H]1c1ccc(Nc3ncc(C(F)(F)F)c(NC4CCC4)n3)cc12; test: surviving fraction relative to DMSO-only wells; higher = less growth inhibition; details: exposure time: 5 days
Outline: (§1)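 Surviving fraction is CellTiter-Glo luminescence divided by the median of wells given DMSO only. For this, log-phase tumour cell lines went into 384-well plates at 250–500 cells per well and, 24 hours later, into five days of continuous inhibitor exposure at 0.5, 1, 5, 10, 50, 100, 500 and 1000 nM. Lines were screened three times and retained only if replicate Pearson r >0.7 and median Z' >0.3.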

CAMPTOTHECIN = compound: CC[C@@]1(O)C(=O)OCc2c1cc1n(c2=O)Cc2cc3ccccc3nc2-1 [CAMPTOTHECIN]; test: as above; details: exposure time: 5 days
Outline: as §1

| Test System | surviving fraction ([1]; 0.5 nM) | surviving fraction ([1]; 1 nM) | surviving fraction ([1]; 5 nM) | surviving fraction ([1]; 10 nM) | surviving fraction ([1]; 50 nM) | surviving fraction ([1]; 100 nM) | surviving fraction ([1]; 500 nM) | surviving fraction ([1]; 1000 nM) | surviving fraction (CAMPTOTHECIN; 0.5 nM) | surviving fraction (CAMPTOTHECIN; 1 nM) | surviving fraction (CAMPTOTHECIN; 5 nM) | surviving fraction (CAMPTOTHECIN; 10 nM) | surviving fraction (CAMPTOTHECIN; 50 nM) | surviving fraction (CAMPTOTHECIN; 100 nM) | surviving fraction (CAMPTOTHECIN; 500 nM) | surviving fraction (CAMPTOTHECIN; 1000 nM) |
| --- | --- | --- | --- | --- | --- | --- | --- | --- | --- | --- | --- | --- | --- | --- | --- | --- |
| SG32 HEADNECK | 1.19 ± 0.078 | 1.02 ± 0.12 | 0.952 ± 0.044 | 1.14 ± 0.031 | 0.758 ± 0.26 | 0.474 ± 0.036 | 0.432 ± 0.095 | 0.398 ± 0.023 | 0.308 ± 0.056 | 0.492 ± 0.0071 | 0.336 ± 0.0083 | 0.447 ± 0.071 | 0.25 ± 0.036 | 0.263 ± 0.037 | 0.0417 ± 0.0055 | 0.026 ± 0.002 |
| LM7 BONE | 0.965 ± 0.032 | 0.951 ± 0.058 | 1.04 ± 0.051 | 1.02 ± 0.011 | 0.921 ± 0.067 | 0.642 ± 0.037 | 0.25 ± 0.024 | 0.13 ± 0.007 | 0.73 ± 0.032 | 0.691 ± 0.08 | 0.422 ± 0.0056 | 0.232 ± 0.015 | 0.145 ± 0.018 | 0.0813 ± 0.0095 | 0.024 ± 0.0035 | 0.0243 ± 0.00058 |
| NOS1 BONE | 1.25 ± 0.038 | 1.29 ± 0.1 | 1.53 ± 0.21 | 1.21 ± 0.095 | 0.84 ± 0.062 | 0.724 ± 0.055 | 0.302 ± 0.017 | 0.219 ± 0.028 | 0.833 ± 0.15 | 0.867 ± 0.02 | 0.663 ± 0.067 | 0.494 ± 0.059 | 0.636 ± 0.037 | 0.552 ± 0.036 | 0.392 ± 0.039 | 0.337 ± 0.026 |
| HMLE3 BREAST | 0.923 ± 0.046 | 0.934 ± 0.029 | 1.01 ± 0.053 | 0.941 ± 0.092 | 0.807 ± 0.027 | 0.689 ± 0.0078 | 0.357 ± 0.026 | 0.237 ± 0.041 | 0.304 ± 0.027 | 0.85433 ± 0.00058 | 0.485 ± 0.027 | 0.3 ± 0.0056 | 0.127 ± 0.026 | 0.0547 ± 0.0029 | 0.0203 ± 0.0015 | 0.0213 ± 0.00058 |
| SCC36 HEADNECK | 1.01 ± 0.1 | 1.04 ± 0.15 | 1.13 ± 0.16 | 1.12 ± 0.066 | 0.945 ± 0.12 | 0.731 ± 0.052 | 0.428 ± 0.048 | 0.431 ± 0.051 | 0.804 ± 0.15 | 0.703 ± 0.13 | 0.704 ± 0.14 | 0.495 ± 0.018 | 0.332 ± 0.012 | 0.156 ± 0.0031 | 0.0463 ± 0.012 | 0.0413 ± 0.004 |
| 93VU HEADNECK | 0.823 ± 0.059 | 0.803 ± 0.035 | 0.951 ± 0.029 | 1 ± 0.061 | 0.895 ± 0.055 | 0.682 ± 0.0098 | 0.331 ± 0.043 | 0.114 ± 0.021 | 0.844 ± 0.091 | 0.838 ± 0.038 | 0.805 ± 0.036 | 0.789 ± 0.063 | 0.464 ± 0.021 | 0.277 ± 0.043 | 0.103 ± 0.018 | 0.061 ± 0.007 |
| SG31 HEADNECK | 0.909 ± 0.13 | 1.05 ± 0.18 | 1.03 ± 0.26 | 0.808 ± 0.041 | 0.913 ± 0.052 | 0.705 ± 0.069 | 0.749 ± 0.076 | 0.717 ± 0.1 | 0.444 ± 0.03 | 0.911 ± 0.064 | 0.607 ± 0.074 | 0.715 ± 0.1 | 0.376 ± 0.021 | 0.37 ± 0.049 | 0.189 ± 0.017 | 0.133 ± 0.018 |
| T47D BREAST | 0.9824 ± 0.0044 | 1.02 ± 0.014 | 1.03 ± 0.032 | 1.05 ± 0.046 | 1.16 ± 0.025 | 1.09 ± 0.013 | 1.12 ± 0.018 | 1.07 ± 0.013 | 0.819 ± 0.035 | 0.878 ± 0.023 | 0.743 ± 0.019 | 0.528 ± 0.012 | 0.259 ± 0.013 | 0.236 ± 0.0055 | 0.157 ± 0.006 | 0.137 ± 0.0086 |
| G292 BONE | 0.997 ± 0.043 | 0.968 ± 0.052 | 0.999 ± 0.025 | 0.949 ± 0.015 | 0.59 ± 0.028 | 0.485 ± 0.017 | 0.181 ± 0.0022 | 0.087 ± 0.001 | 0.901 ± 0.015 | 0.874 ± 0.047 | 0.591 ± 0.037 | 0.383 ± 0.014 | 0.292 ± 0.0027 | 0.18 ± 0.012 | 0.121 ± 0.0073 | 0.102 ± 0.0078 |
| JURKAT HAEMATOPOIETIC AND LYMPHOID TISSUE | 1.07 ± 0.015 | 1.06 ± 0.028 | 1.07 ± 0.012 | 1.03 ± 0.03 | 0.286 ± 0.012 | 0.677 ± 0.018 | 0.395 ± 0.01 | 0.305 ± 0.019 | 0.928 ± 0.043 | 0.902 ± 0.025 | 0.282 ± 0.011 | 0.0237 ± 0.0015 | 0.0293 ± 0.00058 | 0.0247 ± 0.00058 | 0.0203 ± 0.00058 | 0.0253 ± 0.0011 |
| SUM44 BREAST | 1.04 ± 0.039 | 0.997 ± 0.013 | 1.09 ± 0.028 | 1.06 ± 0.13 | 1.09 ± 0.025 | 1.27 ± 0.045 | 1.4 ± 0.056 | 1.26 ± 0.051 | 0.808 ± 0.15 | 0.813 ± 0.082 | 0.835 ± 0.11 | 0.846 ± 0.056 | 0.985 ± 0.12 | 0.927 ± 0.096 | 0.326 ± 0.038 | 0.231 ± 0.048 |
| PCI30 HEADNECK | 0.891 ± 0.04 | 0.873 ± 0.077 | 1.01 ± 0.067 | 1.04 ± 0.084 | 0.964 ± 0.035 | 0.625 ± 0.032 | 0.567 ± 0.016 | 0.564 ± 0.0087 | 0.908 ± 0.043 | 0.912 ± 0.056 | 0.857 ± 0.024 | 0.497 ± 0.026 | 0.437 ± 0.034 | 0.487 ± 0.027 | 0.356 ± 0.015 | 0.264 ± 0.015 |
| CME SYNOVIAL | 1.13 ± 0.079 | 1.02 ± 0.17 | 0.992 ± 0.16 | 1.08 ± 0.066 | 0.915 ± 0.032 | 0.395 ± 0.036 | 0.255 ± 0.02 | 0.33 ± 0.015 | 0.013 ± 0.0036 | 0.14 ± 0.019 | 0.0177 ± 0.00058 | 0.0897 ± 0.018 | 0.028 ± 0.0027 | 0.152 ± 0.017 | 0.1177 ± 0.00058 | 0.229 ± 0.0051 |
| VP229 BREAST | 1.08 ± 0.051 | 1.1 ± 0.12 | 1.02 ± 0.15 | 0.999 ± 0.04 | 0.917 ± 0.046 | 0.548 ± 0.016 | 0.624 ± 0.031 | 0.556 ± 0.057 | 0.862 ± 0.018 | 0.912 ± 0.14 | 0.794 ± 0.17 | 0.662 ± 0.14 | 0.569 ± 0.037 | 0.348 ± 0.084 | 0.0443 ± 0.01 | 0.0333 ± 0.0031 |
| HMT3552 BREAST | 1.16 | 1.06 | 1.01 | 0.934 | 0.148 | 0.47 | 0.121 | 0.116 | 0.955 ± 0.056 | 0.944 ± 0.087 | 0.782 ± 0.031 | 0.422 ± 0.0095 | 0.224 ± 0.0076 | 0.215 ± 0.0061 | 0.0953 ± 0.005 | 0.0647 ± 0.0081 |
| CAL51 BREAST | 1.01 ± 0.041 | 0.9652 ± 0.005 | 0.988 ± 0.032 | 0.946 ± 0.013 | 0.675 ± 0.019 | 0.222 ± 0.0058 | 0.144 ± 0.0039 | 0.146 ± 0.009 | 0.923 ± 0.077 | 0.881 ± 0.05 | 0.797 ± 0.027 | 0.52 ± 0.014 | 0.0468 ± 0.0037 | 0.0333 ± 0.0025 | 0.0225 ± 0.00087 | 0.0242 ± 0.0021 |
| MDAMB361 BREAST | 0.96 ± 0.044 | 0.939 ± 0.041 | 0.88 ± 0.038 | 0.873 ± 0.02 | 0.922 ± 0.11 | 1.1 ± 0.05 | 1.09 ± 0.075 | 0.928 ± 0.093 | 0.664 ± 0.069 | 0.737 ± 0.045 | 0.747 ± 0.096 | 0.723 ± 0.066 | 0.774 ± 0.071 | 0.702 ± 0.032 | 0.397 ± 0.038 | 0.38 ± 0.041 |
| 22RV1 PROSTATE | 0.97 ± 0.066 | 0.996 ± 0.047 | 0.937 ± 0.029 | 0.95 ± 0.03 | 0.587 ± 0.021 | 0.678 ± 0.026 | 0.625 ± 0.059 | 0.56 ± 0.066 | 0.938 ± 0.095 | 0.957 ± 0.053 | 0.586 ± 0.044 | 0.275 ± 0.022 | 0.162 ± 0.16 | 0.189 ± 0.22 | 0.24 ± 0.28 | 0.24 ± 0.28 |
| MDAMB453 BREAST | 1.03 ± 0.021 | 1.05 ± 0.034 | 1.01 ± 0.046 | 1.07 ± 0.032 | 0.794 ± 0.091 | 0.725 ± 0.094 | 0.541 ± 0.038 | 0.413 ± 0.015 | 0.966 ± 0.069 | 0.966 ± 0.017 | 1.01 ± 0.048 | 0.942 ± 0.058 | 0.43 ± 0.03 | 0.453 ± 0.015 | 0.109 ± 0.016 | 0.091 ± 0.0027 |
| C33A CERVIX | 0.77 ± 0.079 | 0.707 ± 0.032 | 0.895 ± 0.062 | 0.953 ± 0.069 | 0.665 ± 0.087 | 0.515 ± 0.03 | 0.396 ± 0.011 | 0.351 ± 0.012 | 0.863 ± 0.019 | 0.868 ± 0.074 | 0.654 ± 0.1 | 0.423 ± 0.024 | 0.126 ± 0.03 | 0.0787 ± 0.0078 | 0.0317 ± 0.0032 | 0.0383 ± 0.016 |
| LNCAP PROSTATE | 0.859 ± 0.059 | 0.872 ± 0.052 | 0.77 ± 0.08 | 0.893 ± 0.19 | 0.416 ± 0.044 | 0.46 ± 0.046 | 0.689 ± 0.0089 | 0.664 ± 0.097 | 0.98 ± 0.035 | 0.802 ± 0.047 | 0.254 ± 0.017 | 0.164 ± 0.01 | 0.0637 ± 0.0064 | 0.0507 ± 0.0067 | 0.023 ± 0.0035 | 0.0203 ± 0.0011 |
